From ChEMBL document CHEMBL1201862, “PubChem BioAssay data set” (2004)
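All cell lines were grown in 96-well plates and treated with compound for 48 hours. GI50: concentration for 50% inhibition of growth.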 Calls of active or inactive are those of the source. No stated cut-off is given here; in the data, active = GI50 up to about 1.1 µM and inactive = higher.

Columns and labels:
Experiment in all cases: growth of human tumour cells (NCI), 48 h
A549 = tested on: A549
BT-549 = tested on: BT-549
CAKI-1 = tested on: CAKI-1
EKVX = tested on: EKVX
HL-60 = tested on: HL-60
HT-29 = tested on: HT-29
Hs-578T = tested on: Hs-578T
IGROV-1 = tested on: IGROV-1
K562 = tested on: K562
LOX IMVI = tested on: LOX IMVI
MCF7 = tested on: MCF7
NCI/ADR-RES = tested on: NCI/ADR-RES
OVCAR-8 = tested on: OVCAR-8
RXF 393 = tested on: RXF 393
SF-539 = tested on: SF-539
SK-MEL-28 = tested on: SK-MEL-28
SK-MEL-2 = tested on: SK-MEL-2
SR = tested on: SR
T47D = tested on: T47D

| Compound | GI50 (A549) | GI50 (BT-549) | GI50 (CAKI-1) | GI50 (EKVX) | GI50 (HL-60) | GI50 (HT-29) | GI50 (Hs-578T) | GI50 (IGROV-1) | GI50 (K562) | GI50 (LOX IMVI) | GI50 (MCF7) | GI50 (NCI/ADR-RES) | GI50 (OVCAR-8) | GI50 (RXF 393) | GI50 (SF-539) | GI50 (SK-MEL-28) | GI50 (SK-MEL-2) | GI50 (SR) | GI50 (T47D) |
| --- | --- | --- | --- | --- | --- | --- | --- | --- | --- | --- | --- | --- | --- | --- | --- | --- | --- | --- | --- |
| COc1ccc(/C=C/C(=O)Oc2ccc(/C=C3\CCCCC3=O)cc2)cc1 | 80.5 µM (inactive) | 72.3 µM (inactive) | > 100 µM (inactive) | > 100 µM (inactive) | 12.6 µM (inactive) | 6.28 µM (inactive) | > 80.5 µM (inactive) | 38.6 µM (inactive) | > 100 µM (inactive) | > 100 µM (inactive) | > 100 µM (inactive) | > 57.4 µM (inactive) | > 75.9 µM (inactive) | > 100 µM (inactive) | > 100 µM (inactive) | > 100 µM (inactive) | > 100 µM (inactive) | > 100 µM (inactive) | > 100 µM (inactive) |
| O=C(CCc1ccc(O)c(O)c1)NCCc1ccc(O)c(O)c1 | > 100 µM (inactive) | > 100 µM (inactive) | – | > 100 µM (inactive) | 26.8 µM (inactive) | > 100 µM (inactive) | > 100 µM (inactive) | > 100 µM (inactive) | 31.7 µM (inactive) | 39.7 µM (inactive) | 27.8 µM (inactive) | > 100 µM (inactive) | 18.3 µM (inactive) | > 100 µM (inactive) | > 100 µM (inactive) | > 100 µM (inactive) | 83.9 µM (inactive) | 23.9 µM (inactive) | > 100 µM (inactive) |
| CC(NC(=O)c1ccccc1)NC(=O)C(C)C(=O)Nc1ccccc1 (configuration not stated) | > 100 µM (inactive) | > 100 µM (inactive) | > 100 µM (inactive) | > 100 µM (inactive) | > 100 µM (inactive) | > 100 µM (inactive) | 32.2 µM (inactive) | > 100 µM (inactive) | > 100 µM (inactive) | – | > 100 µM (inactive) | > 100 µM (inactive) | 94.6 µM (inactive) | 89.1 µM (inactive) | > 100 µM (inactive) | – | > 100 µM (inactive) | > 100 µM (inactive) | > 100 µM (inactive) |
| Nn1c(Nc2ccc(S(=O)(=O)Nc3ncccn3)cc2)nnc(/C=C/c2c(O)ccc3ccccc23)c1=O | 46 µM (inactive) | 22.3 µM (inactive) | 26.7 µM (inactive) | 24.2 µM (inactive) | 20.6 µM (inactive) | 33.9 µM (inactive) | 48.4 µM (inactive) | 27.5 µM (inactive) | 29 µM (inactive) | 30.3 µM (inactive) | 21.6 µM (inactive) | 32.7 µM (inactive) | 34.6 µM (inactive) | 26.2 µM (inactive) | – | – | 18.5 µM (inactive) | 23.4 µM (inactive) | 23.8 µM (inactive) |
| C/C(=N\N=C(N)N)c1c(C(=O)OCCCCCCOC(=O)c2nc3sccn3c2/C(C)=N/N=C(N)N)nc2sccn12 | > 100 µM (inactive) | > 100 µM (inactive) | > 100 µM (inactive) | > 100 µM (inactive) | 32.1 µM (inactive) | > 100 µM (inactive) | > 100 µM (inactive) | > 100 µM (inactive) | 19.5 µM (inactive) | 98.2 µM (inactive) | 47.4 µM (inactive) | > 100 µM (inactive) | 42.9 µM (inactive) | > 100 µM (inactive) | – | > 100 µM (inactive) | > 100 µM (inactive) | 18.3 µM (inactive) | 16.2 µM (inactive) |
| Cn1c(NN)nc(-c2ccc([N+](=O)[O-])cc2)c(C#N)c1=O | 19.8 µM (inactive) | 12.7 µM (inactive) | 26.2 µM (inactive) | 15.8 µM (inactive) | 30.8 µM (inactive) | 12.8 µM (inactive) | 14.5 µM (inactive) | 18.5 µM (inactive) | 38.2 µM (inactive) | 17.1 µM (inactive) | 16.6 µM (inactive) | 31 µM (inactive) | 19.2 µM (inactive) | 14.9 µM (inactive) | – | 12.5 µM (inactive) | 22.2 µM (inactive) | 18.7 µM (inactive) | 15.8 µM (inactive) |
| Cc1ccc(/N=N/c2c(C)nn(C(=O)CC(=O)Nc3ccc(Cl)cc3)c2C)cc1C | > 100 µM (inactive) | > 100 µM (inactive) | > 100 µM (inactive) | 28.2 µM (inactive) | 24.4 µM (inactive) | > 100 µM (inactive) | 7.05 µM (inactive) | 37.2 µM (inactive) | – | 96.8 µM (inactive) | > 100 µM (inactive) | > 100 µM (inactive) | 32.9 µM (inactive) | 20.7 µM (inactive) | 26 µM (inactive) | > 100 µM (inactive) | 77.8 µM (inactive) | 18.8 µM (inactive) | > 100 µM (inactive) |
| N#CC(=C1CCCCC1)c1nc2ccccc2o1 | 51.1 µM (inactive) | 32.1 µM (inactive) | 64.1 µM (inactive) | 34.5 µM (inactive) | 35.2 µM (inactive) | 61.5 µM (inactive) | 58.7 µM (inactive) | 83 µM (inactive) | 69.8 µM (inactive) | – | 53.1 µM (inactive) | 40 µM (inactive) | 47.4 µM (inactive) | > 100 µM (inactive) | 31.7 µM (inactive) | > 100 µM (inactive) | > 100 µM (inactive) | 37.9 µM (inactive) | 19.4 µM (inactive) |
| C(=N\c1cc2cc(Sc3ccccc3)ccc2[nH]1)/c1ccccc1 | 0.0818 µM (active) | > 12.5 µM (inactive) | > 12.5 µM (inactive) | > 12.5 µM (inactive) | > 12.5 µM (inactive) | > 12.5 µM (inactive) | > 12.5 µM (inactive) | – | 11 µM (inactive) | 5.85 µM (inactive) | > 12.5 µM (inactive) | > 12.5 µM (inactive) | > 12.5 µM (inactive) | > 12.5 µM (inactive) | 0.741 µM (active) | > 12.5 µM (inactive) | – | 1.32 µM (inactive) | > 12.5 µM (inactive) |
| COc1ccc(C2=Nc3cc(C)c(C)cc3NC(c3ccccc3)C2)cc1 (configuration not stated) | 44.7 µM (inactive) | > 100 µM (inactive) | > 100 µM (inactive) | > 100 µM (inactive) | 18.7 µM (inactive) | 20.1 µM (inactive) | > 100 µM (inactive) | > 100 µM (inactive) | 21.9 µM (inactive) | 28.7 µM (inactive) | 6.46 µM (inactive) | 43.4 µM (inactive) | > 100 µM (inactive) | > 100 µM (inactive) | > 100 µM (inactive) | > 100 µM (inactive) | > 100 µM (inactive) | 4.86 µM (inactive) | 21.7 µM (inactive) |
| Oc1ccccc1C(Sc1nc2ccccc2s1)Sc1nc2ccccc2s1 | > 100 µM (inactive) | 56.4 µM (inactive) | 34.4 µM (inactive) | 23.4 µM (inactive) | 37.1 µM (inactive) | > 100 µM (inactive) | 24.1 µM (inactive) | 29.9 µM (inactive) | 56.2 µM (inactive) | 67.5 µM (inactive) | > 100 µM (inactive) | 57.8 µM (inactive) | 85.3 µM (inactive) | > 100 µM (inactive) | – | > 100 µM (inactive) | > 100 µM (inactive) | 43.7 µM (inactive) | 19.3 µM (inactive) |
